Measurements reported in ChEMBL document CHEMBL2074072, “Transport of glutathione, glucuronate, and sulfate conjugates by the MRP gene-encoded conjugate export pump” (Cancer Res, 1996).

Target: Multidrug resistance-associated protein 1 (Homo sapiens, UniProt P33527)
Experiment: TP_TRANSPORTER: uptake in membrane vesicle from MRP1-expressing HeLa cells
Assay type: functional, cell membranes

Multidrug resistance-associated protein 1, sequence (P33527 whole entry): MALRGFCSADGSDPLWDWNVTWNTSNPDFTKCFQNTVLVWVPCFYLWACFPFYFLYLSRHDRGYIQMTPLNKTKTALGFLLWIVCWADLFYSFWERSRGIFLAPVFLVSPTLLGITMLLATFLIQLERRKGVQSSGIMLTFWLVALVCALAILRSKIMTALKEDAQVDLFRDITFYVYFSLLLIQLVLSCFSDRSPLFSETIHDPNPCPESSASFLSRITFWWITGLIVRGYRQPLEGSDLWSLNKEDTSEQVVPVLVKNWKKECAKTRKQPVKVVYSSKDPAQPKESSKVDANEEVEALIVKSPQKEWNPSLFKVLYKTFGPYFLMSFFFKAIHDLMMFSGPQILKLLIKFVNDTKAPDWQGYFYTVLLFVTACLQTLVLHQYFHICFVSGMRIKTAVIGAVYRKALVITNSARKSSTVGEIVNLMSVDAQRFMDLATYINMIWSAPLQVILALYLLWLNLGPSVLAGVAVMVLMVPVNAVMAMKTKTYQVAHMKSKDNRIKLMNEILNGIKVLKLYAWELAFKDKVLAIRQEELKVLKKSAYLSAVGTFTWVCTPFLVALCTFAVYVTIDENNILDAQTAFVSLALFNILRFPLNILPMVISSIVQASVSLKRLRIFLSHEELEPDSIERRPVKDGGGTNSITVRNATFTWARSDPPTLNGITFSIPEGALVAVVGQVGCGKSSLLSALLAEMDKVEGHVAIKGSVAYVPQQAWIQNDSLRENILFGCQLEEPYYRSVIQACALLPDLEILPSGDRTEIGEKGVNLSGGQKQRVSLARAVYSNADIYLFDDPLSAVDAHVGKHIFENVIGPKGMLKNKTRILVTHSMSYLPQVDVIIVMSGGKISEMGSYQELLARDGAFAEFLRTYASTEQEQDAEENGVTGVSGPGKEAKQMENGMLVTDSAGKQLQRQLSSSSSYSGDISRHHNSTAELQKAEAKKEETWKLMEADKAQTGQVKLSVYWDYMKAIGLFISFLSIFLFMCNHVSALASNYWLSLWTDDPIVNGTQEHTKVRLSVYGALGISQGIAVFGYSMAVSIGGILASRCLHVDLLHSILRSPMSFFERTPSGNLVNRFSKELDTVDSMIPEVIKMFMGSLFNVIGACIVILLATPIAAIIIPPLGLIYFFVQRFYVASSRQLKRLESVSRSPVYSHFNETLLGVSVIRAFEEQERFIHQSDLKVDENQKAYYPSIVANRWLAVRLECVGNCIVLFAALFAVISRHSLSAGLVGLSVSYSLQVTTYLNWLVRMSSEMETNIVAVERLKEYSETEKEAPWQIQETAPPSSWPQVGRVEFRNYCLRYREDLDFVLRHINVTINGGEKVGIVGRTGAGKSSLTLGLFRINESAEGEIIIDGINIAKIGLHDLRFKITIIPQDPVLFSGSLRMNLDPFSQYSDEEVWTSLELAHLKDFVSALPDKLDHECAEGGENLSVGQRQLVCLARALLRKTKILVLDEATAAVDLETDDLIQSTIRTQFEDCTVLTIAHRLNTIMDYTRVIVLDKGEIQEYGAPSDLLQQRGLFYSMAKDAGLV

Compound | Activity
CCCCC/C=C\C\C=C/C=C/C=C/[C@@H](SC[C@H](NC(C)=O)C(=O)O)[C@@H](O)CCCC(=O)O | substrate [+]
C[C@H](CCC(=O)O)[C@H]1CC[C@H]2[C@@H]3C[C@H](O[C@@H]4O[C@H](C(=O)O)[C@@H](O)[C@H](O)[C@H]4O)[C@@H]4C[C@H](O)CC[C@]4(C)[C@H]3CC[C@]12C [6alpha-Glucuronosylhyodeoxycholate] | substrate [+]
COc1cc([C@@H]2c3cc4c(cc3[C@@H](O[C@@H]3O[C@@H]5CO[C@@H](C)O[C@H]5[C@H](O)[C@H]3O)[C@H]3COC(=O)[C@H]23)OCO4)cc(OC)c1O[C@@H]1O[C@H](C(=O)O)[C@@H](O)[C@H](O)[C@H]1O [ETOPOSIDE GLUCURONIDE] | substrate [+]
CCCCC/C=C\C\C=C/C=C/C=C/[C@@H](SC[C@H](N)C(=O)O)[C@@H](O)CCCC(=O)O [LEUKOTRIEN E4] | substrate [+]
CCCCC/C=C\C\C=C/C=C/C=C/[C@@H](SC[C@H](N)C(=O)NCC(=O)O)[C@@H](O)CCCC(=O)O [LEUKOTRIENE D4] | substrate [+]
